Biological target: T1, mouse Nurr1 full-length (Mus musculus, UniProt Q06219)
T1 construct: pcDNA3.1 Myc/His mouse Nurr1 full-length construct; expressed in transfected cells; host or cells: SK-N-BE2C
Assay: Luciferase reporter gene assay for Nurr1 transcriptional activity in SK-N-BE2C cells
Format: cell-based
Details: relative activity over control (luminescence value; 1.0)
Description: To investigate whether the PG analogs of the present invention activate Nurr1 function, the inventors of the present invention employed an reporter gene assay and examined the transcriptional activation as described in Kim, C.-H. et al., Proceedings of the National Academy of Sciences 112, 8756-8761, doi:10.1073/pnas.1509742112 (2015).
The gene assay was performed by Luciferase assay as described below:
[Protocol for Luciferase Assay to Determine Nurr1 Transcriptional Activity] • 1. SK-N-BE2C cells were maintained in HyClone™ DMEM High Glucose (Cat. No.: SH30022.01) with 10% (v/v) fetal bovine serum (FBS), 100 units/ml penicillin and 100 μg/ml streptomycin. • 2. Seed 1.5×10^5 SK-N-BE2C cells/well into a 24-well plate and incubate at 37° C. with 5% CO2 for 24 hours. • 3. After 24 hours, transfect cells with pcDNA3.1 Myc/His mouse Nurr1 full-length construct, firefly luciferase reporter vector (pGL-3 basic from Promega, Cat. No.:E1751; with appropriate response element cloned in) and Renilla luciferase control vector (pRL-null from Promega, Cat. No.:E2271) in the ratio of 8:1:1 (Nurr1: firefly: renilla) or 400 ng, 50 ng and 50 ng respectively, amounting to a total of 500 ng in the 50 μl transfection mix for 1 well. • 4. To make the transfection mix, first prepare the DNA with P3000 reagent by adding the appropriate amount of DNA with 1 μl P3000 reagent and top up with Opti-MEM® I Reduced-Serum Media (from ThermoFisher Scientific [Cat. No.: 31985070]) to 25 μl. Incubate for 5 minutes at room temperature. • 5. Make another mix consisting of 1 μl Lipofectamine 3000 reagent with 24 μl Opti-MEM® I Reduced-Serum Media per well. Add this Lipofectamine mix to the previous DNA-P3000 mix (after the previous 5 minute incubation) and incubate them for 15 minutes at room temperature. [P3000:Lipofectamine=1:1]. • 6. In the meantime, change the media in the sample wells with fresh DMEM media without antibiotics. • 7. After 15 minutes incubation, add the 50 μl transfection mix into each well and incubate the plate for 24 hours at 37° C. with 5% CO2. • 8. After 24 hours, change the media to normal DMEM media with antibiotics and add various doses of compounds into designated wells and incubate the plate for another 24 hours at 37° C. with 5% CO2. • 9. Following the 24-hour incubation period, luciferase assay can be conducted using Dual-Glo Luciferase® kit from Promega (Cat. No.: E2920). • 10. Lyse each tested wells for 15 minutes with 75 μl of passive lysis buffer provided in the Dual-Luciferase® kit from Promega (Cat. No.: E1910). [Alternatively, add 75 μl of PBS and 75 μl of Dual-Glo® Luciferase Reagent and incubate for 10 minutes at room temperature (cover the plate with foil to protect from light). Transfer the entire sample in each well to a Greiner CELLSTAR® 96-well white polystyrene plate then proceed to step 13]. • 11. After 15 minutes, transfer each lysed sample to a Greiner CELLSTAR® 96-well white polystyrene plate (Cat. No.:655083). • 12. To each well of lysed cells, add 75 μl of Dual-Glo® Luciferase Reagent and incubate for 10 minutes at room temperature (cover the plate with foil to protect from light). • 13. Set the measurement with a 10-second integrated measurement period. • 14. Add 75 μl of Dual-Glo® Stop & Glo® reagent into each well and incubate for 10 minutes before commencing with the same parameters as before to determine the RLU for the Renilla luciferase. • 15. The averaged reading for wells corresponding to non-transfected cells can be subtracted from each RLU reading and duplicate/triplicate readings can then be averaged. Normalization of the luminescence reading for each well can be carried out by dividing the firefly luciferase RLU with the corresponding Renilla luciferase RLU. Each drug-treated well can then be normalized against the averaged DMSO-treated well reading.

T1 sequence (Q06219 whole entry): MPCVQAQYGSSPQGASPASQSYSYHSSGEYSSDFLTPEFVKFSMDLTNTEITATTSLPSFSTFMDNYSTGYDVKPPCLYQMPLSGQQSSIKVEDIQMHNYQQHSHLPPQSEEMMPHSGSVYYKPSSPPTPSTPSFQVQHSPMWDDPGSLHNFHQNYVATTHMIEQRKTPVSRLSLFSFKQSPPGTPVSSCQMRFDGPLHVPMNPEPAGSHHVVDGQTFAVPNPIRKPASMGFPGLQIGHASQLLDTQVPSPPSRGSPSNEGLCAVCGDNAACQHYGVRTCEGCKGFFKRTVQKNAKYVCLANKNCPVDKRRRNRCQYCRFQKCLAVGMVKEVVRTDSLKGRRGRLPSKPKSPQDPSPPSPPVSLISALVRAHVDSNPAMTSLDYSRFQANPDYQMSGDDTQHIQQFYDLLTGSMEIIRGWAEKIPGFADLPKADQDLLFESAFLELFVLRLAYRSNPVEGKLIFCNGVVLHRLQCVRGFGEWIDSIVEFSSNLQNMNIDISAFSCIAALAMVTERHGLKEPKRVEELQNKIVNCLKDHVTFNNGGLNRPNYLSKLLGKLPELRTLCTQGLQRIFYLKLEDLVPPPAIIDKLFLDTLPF

SMILES | Fold activity (1 uM)
C=C1C[C@H](O)[C@H](C/C=C\CCCC(=O)O)[C@H]1/C=C/[C@@H](O)CCCCC [Compound 25, 11-deoxy-11-methylene Prostaglandin D2] | B (1.1~2.0 (moderate))
CCCC[C@H](C)C[C@H](O)/C=C/[C@H]1[C@H](O)CC(=O)[C@@H]1CCCCC(CC(=O)O)OC (stereo partly shown) [Compound 63, 3-methoxy Limaprost] | B (1.1~2.0 (moderate))
CCCCC[C@H](O)/C=C/[C@H]1[C@H](O)CC(=O)[C@@H]1CCCCCCC(=O)Nc1ccc2nccnc2c1 [Compound 7, 7-((1R,2R,3R)-3-hydroxy-2-((S,E)-3-hydroxyoct-1-enyl)-5-oxocyclopentyl)-N-(quinoxalin-6-yl)heptanamide] | A (above 2.0 (high activity))
CCCCCC(O)/C=C/C1C(=O)CC(O)C1C/C=C\CCCC(=O)OCC(O)CO (stereo not shown) [Compound 17, Prostaglandin D2-1-glyceryl ester] | B (1.1~2.0 (moderate))
CCCCC[C@H](O)/C=C/[C@H]1[C@H](O)CC(=O)[C@@H]1CCCCCCC(=O)Oc1ccc(NC(=O)c2cc(F)cc(F)c2)cc1 [Compound 13, 4-(3,5-difluorobenzamido)phenyl 7-((1R,2R,3R)-3-hydroxy-2-((S,E)-3-hydroxyoct-1-enyl)-5-oxocyclopentyl)heptanoate] | A (above 2.0 (high activity))
CCCCCC(O)/C=C/[C@H]1[C@H](O)CC(=O)[C@@H]1CCCCCCC(=O)Oc1ccc(NC(=O)c2ccc(F)cc2)cc1 (stereo partly drawn) [Compound 11, 4-(4-fluorobenzamido)phenyl 7-((1R,2R,3R)-3-hydroxy-2-((E)-3-hydroxyoct-1-enyl)-5-oxocyclopentyl)heptanoate] | A (above 2.0 (high activity))
CCCCC[C@H](O)/C=C/[C@H]1[C@@H](O)CC(=O)[C@@H]1C/C=C\CCCC(=O)O [Compound 21, 11b-Prostaglandin E2] | B (1.1~2.0 (moderate))
CCCC1([C@H](O)C/C=C/[C@H]2[C@H](O)CC(=O)[C@@H]2CCCCCCC(=O)O)CCC1 [Compound 31, (R)-Butaprost (free acid)] | B (1.1~2.0 (moderate))
CCCCC(C)(O)C/C=C/[C@H]1[C@H](O)CC(=O)[C@@H]1CCCCCCC(=O)OC (stereo partly shown) [Compound 75, Misoprostol] | A (above 2.0 (high activity))
O=C(O)CCC/C=C\C[C@H]1C(=O)C[C@@H](O)[C@@H]1/C=C/[C@@H](O)Cc1ccccc1 [Compound 30, 16-phenyl tetranor Prostaglandin E2] | A (above 2.0 (high activity))
CCCCCCC[C@H](O)/C=C/[C@H]1[C@H](O)CC(=O)[C@@H]1C/C=C\CCCC(=O)O [Compound 62, 20-ethyl Prostaglandin E2] | A (above 2.0 (high activity))
CCCCC[C@H](O)/C=C/[C@H]1[C@H](O)CC(=O)[C@@H]1CCCCCCC(=O)Nc1ccc2cccnc2c1 [Compound 8, 7-((1R,2R,3R)-3-hydroxy-2-((S,E)-3-hydroxyoct-1-enyl)-5-oxocyclopentyl)-N-(quinolin-7-yl)heptanamide] | A (above 2.0 (high activity))
CCCCC[C@H](O)/C=C/[C@H]1[C@H](O)CC(=O)[C@H]1C/C=C\CCCC(=O)O [Compound 68, 8-iso Prostaglandin E2] | A (above 2.0 (high activity))
CCCCC[C@H](O)/C=C/[C@H]1C(=O)C[C@H](O)[C@@H]1C/C=C\CCCC(=O)OC [Compound 55, Prostaglandin D2 methyl ester] | C (below 1.0 (low activity))
C[C@@H](O)CCC[C@H](O)/C=C/[C@H]1[C@H](O)CC(=O)[C@@H]1CCCCCCC(=O)O [Compound 83, 19(R)-hydroxy Prostaglandin E1] | B (1.1~2.0 (moderate))
CCCCC[C@H](O)/C=C/[C@H]1[C@H](O)CC(=O)[C@@H]1C/C=C\CCCC(=O)OCC(O)CO (stereo partly shown) [Compound 24, Prostaglandin E2-1-glyceryl ester] | A (above 2.0 (high activity))

SMILES | Fold activity (1 uM)
CCCCC(C)(C)[C@H](O)/C=C/[C@H]1[C@H](O)CC(=O)[C@@H]1CC(=O)CCCCC(=O)O [Compound 84, 16,16-dimethyl-6-keto Prostaglandin E1] | B (1.1~2.0 (moderate))
CCCCC[C@H](O)/C=C/[C@H]1C(=O)C[C@H](O)[C@@H]1C/C=C\CCCC(=O)O [Compound 64, Prostaglandin D2] | B (1.1~2.0 (moderate))
CCCCCC(=O)CCC1C(=O)CC(O)C1CCCCCCC(=O)O (stereo not shown) [Compound 79, 13,14-dihydro-15-keto Prostaglandin D1] | C (below 1.0 (low activity))
CCCCC[C@H](O)/C=C/[C@H]1[C@H](O)CC(=O)[C@H]1C/C=C\CCCC(=O)OC(C)C [Compound 76, 8-iso Prostaglandin E2 isopropyl ester] | A (above 2.0 (high activity))
CCCCCC(=O)CC[C@H]1C(=O)C[C@H](O)[C@@H]1C/C=C\CCCC(=O)O [Compound 33, 13,14-dihydro-15-keto Prostaglandin D2] | B (1.1~2.0 (moderate))
CCCCC(C)(O)C/C=C/[C@H]1[C@H](O)CC(=O)[C@@H]1CCCCCCC(=O)Oc1ccc(NC(=O)c2ccccc2)cc1 (stereo partly drawn) [Compound 2, 4-Benzamidophenyl-7-((1R,2R,3R)-3-hydroxy-2-((E)-4-hydroxy-4-methyloct-1-en-1-yl)-5-oxocyclopentyl)heptanoate] | A (above 2.0 (high activity))
CCCCC[C@H](O)/C=C/[C@H]1[C@H](O)CC(=O)[C@@H]1CCCCCCC(=O)OCc1ccccc1 [Compound 15, benzyl 7-((1R,2R,3R)-3-hydroxy-2-((S,E)-3-hydroxyoct-1-enyl)-5-oxocyclopentyl)heptanoate] | A (above 2.0 (high activity))
CCCCC[C@](C)(O)/C=C/[C@H]1[C@H](O)CC(=O)[C@@H]1C/C=C\CCCC(=O)O [Compound 61, 15(S)-15-methyl Prostaglandin E2] | A (above 2.0 (high activity))
CCCC1([C@H](O)C/C=C/[C@H]2[C@H](O)CC(=O)[C@@H]2CCCCCCC(=O)OC)CCC1 [Compound 35, (R)-Butaprost] | B (1.1~2.0 (moderate))
O=C(O)CCC/C=C\C[C@H]1[C@@H](O)CC(=O)[C@@H]1/C=C/[C@@H](O)COc1cccc(C(F)(F)F)c1 [Compound 23, 11-keto Fluprostenol] | B (1.1~2.0 (moderate))
CCCCC[C@@H](O)CC[C@H]1[C@H](O)CC(=O)[C@@H]1CCCCCCC(=O)O [Compound 66, 13,14-dihydro-15(R)-Prostaglandin E1] | B (1.1~2.0 (moderate))
CCCCC(C)(C)[C@H](O)/C=C/[C@H]1[C@H](O)CC(=O)[C@@H]1C/C=C\CCCC(=O)Oc1ccc(NC(=O)c2ccc(NC(C)=O)cc2)cc1 [Compound 77, 16,16-dimethyl Prostaglandin E2 p-(p-acetamidobenzamido) phenyl ester] | A (above 2.0 (high activity))
CCCCC[C@@H](O)/C=C/[C@H]1[C@H](O)CC(=O)[C@@H]1CCCCCCC(=O)O [Compound 87, 15(R)-PGE1] | C (below 1.0 (low activity))
CC/C=C\C[C@H](O)/C=C/[C@H]1[C@H](O)CC(=O)[C@@H]1C/C=C\CCCC(=O)O [Compound 70, Prostaglandin E3] | A (above 2.0 (high activity))
CS(=O)(=O)NC(=O)CCC/C=C\C[C@H]1C(=O)C[C@@H](O)[C@@H]1/C=C/[C@@H](O)COc1ccccc1 [Compound 22, Sulprostone] | B (1.1~2.0 (moderate))
